Measurements from US7105527B2, “N4-acylcytosine nucleosides for treatment of viral infections” (priority 2001, dated 2006).
Read-outs that look alike come from different tables or passages of the source.

Assays:
[1] = Cytotoxicity assay in MT-2 cells; format: cell-based; conditions: human, Table 1, read-out: Cytotoxicity in different cells (IC50, μM) MT-2
Protocol: (§1) The toxicity of the compounds was assessed in Vero, human PBM, CEM (human lymphoblastoid), MT-2, and HepG2 cells, as described previously (Schinazi […]., Cannon D. L., Xie […]., Smith […]. […] Cycloheximide was included as positive cytotoxic control, and untreated cells exposed to solvent were included as negative controls. The cytotoxicity IC50 was obtained from the concentration-response curve using the median effective method described previously (Chou […]. […] Belen'kii M. S. & Schinazi R. F.

[2] = Cytotoxicity assay in PBM cells; format: cell-based, human; conditions: human, human PBM cells, Table 1, read-out: Cytotoxicity in different cells (IC50, μM) PBM
Protocol: as §1

[3] = Cytotoxicity assay in Vero cells; format: cell-based; conditions: African green monkey, Table 1, read-out: Cytotoxicity in different cells (IC50, μM) Vero
Protocol: as §1

[4] = Cytotoxicity assay in CEM cells; format: cell-based, human; conditions: human, CEM lymphoblastoid cells, Table 1, read-out: Cytotoxicity in different cells (IC50, μM) CEM
Protocol: as §1

HIV-1LAl = test: Anti-HIV (in PBM cells) assay, reverse transcriptase readout; format: cell-based
Protocol: Anti-HIV-1 activity of the compounds was determined in human peripheral blood mononuclear (PBM) cells as described previously (Schinazi […]., Cannon D., Mathis R., Lloyd R. M. Jr., […]., St. Clair M., Wilson J., Furman P. A., Painter G., Choi […]. Antimicrob. Agents Chemother. 1992, 36, 2423; Schinazi […]., Cannon D., Xie […]., Smith G., Hahn E. Antimicrob. Agents Chemother. 1990, 34, 1061). Stock solutions ([…]) of the compounds were prepared in sterile DMSO and then diluted to the desired concentration in growth medium. […] Virus obtained from the cell supernatant was quantified on day 6 after infection by a reverse transcriptase assay using (rA)n.(dT)12.18 as template-primer. […] AZT was included as positive control. The antiviral EC50 and EC90 were obtained from the concentration-response curve using the median effective method described previously (Chou […]. Enzyme Regul. 1984, 22, 27-55; Belen'kii M. S. & Schinazi R. F. Antiviral Res. 1994, 25, 1-11).

HIV-1NL4-3 = test: Anti-HIV assay in MT-4 cells, consensus p24 assay; format: cell-based; conditions: Human immunodeficiency virus 1, MT4, Table 1, read-out: Anti-HIV-1 activity in different cells (EC90, μM) MT-4
Protocol: (§2) In a second antiviral testing system, the potency of the compounds was determined by measurement of viral RNA accumulation in HIV-1RF infected MT-2 cells (Bacheler L T, Paul M, Otto M J, Jadhav P K, Stone B A & Miller J A (1994) An assay for HIV RNIn infected cell lysates, and its use for rapid evaluation of antiviral efficacy. Antivir. Chem. Chemother. 5:111–121). The virus titer was established to determine the dilution producing 15 to 30 ng/RNA per well of HIV RNIn 3 days of infection. HIV-1 RNA was quantified using biotinylated capture and alkaline phosphatase-derivatized reporter oligonucleotides as described previously (Charvet A-S, Camplo M, Faury P, Graciet J C, Mourier N, Chermann J C & Kraus J L (1994) Inhibition of human immunodeficiency virus type 1 replication by phosphonoformate- and phosphonoacetate-2′,3′-dideoxy-3′-thiacytidine conjugates. J. Med. Chem. 37:2216–2223). In a third system, the effect of analogs on the replication of HIV-1NL4-3 was determined via the InterCompany Consortium consensus p24 assay as previously described (Jadhav P K & MacKay M F (1997) Cyclic urea amide: HIV-1 protease inhibitors with low nanomolar potency against both wild types and protease inhibitor resistant mutants of HIV. J. Med. Chem. 40:181–190). Recombinant viruses were recovered by transfecting the appropriate NL4-3 plasmid by lipofection. Virus stocks recovered 7 to 10 days post-transfection were titered on MT-4 cells to determine if the dilution produced 1,000 to 3,000 ng p24 in 4 days. This dilution was then used in drug susceptibility assays, where drug was added 24 h post infection of cells, and p24 quantified by ELISA 3 days later.

[5] = Cytotoxicity assay in HepG2 cells; format: cell-based; conditions: human, Table 1, read-out: Cytotoxicity in different cells (IC50, μM) HepG2
Protocol: as §1

HIV-1RF = test: Anti-HIV (in MT-2 cells) assay, viral RNA accumulation; format: cell-based; conditions: EC90, MT-2 cells, read-out: Anti-HIV-1 activity in different cells (EC90, μM) MT-2
Protocol: as §2

MT-2 cells = test: Cytotoxicity assay in MT-2 cells; format: cell-based
Protocol: as §1

human PBM cells = test: Cytotoxicity assay in PBM cells; format: cell-based
Protocol: as §1

Vero cells = test: Cytotoxicity assay in Vero cells; format: cell-based
Protocol: as §1

[6] = tested on: CEM (human lymphoblastoid) cells; test: Cytotoxicity assay in CEM cells; format: cell-based
Protocol: as §1

HepG2 cells = test: Cytotoxicity assay in HepG2 cells; format: cell-based
Protocol: as §1

[7] = Human immunodeficiency virus 1, PBMC, Table 1, read-out: Anti-HIV-1 activity in different cells (EC90, μM) PBM
[8] = Human immunodeficiency virus 1, MT2, Table 1
[9] = Table 1, read-out: Cytotoxicity in different cells (IC50, μM) MT-2
[10] = Table 1, read-out: Cytotoxicity in different cells (IC50, μM) PBM
[11] = Table 1, read-out: Cytotoxicity in different cells (IC50, μM) Vero
[12] = Table 1, read-out: Cytotoxicity in different cells (IC50, μM) CEM
[13] = Table 1, read-out: Anti-HIV-1 activity in different cells (EC90, μM) PBM
[14] = Table 1, read-out: Cytotoxicity in different cells (IC50, μM) HepG2
[15] = Table 2, read-out: Cytotoxicity in different cells (IC50, μM) MT-2
[16] = Table 2, read-out: Cytotoxicity in different cells (IC50, μM) PBM
[17] = Table 2, read-out: Cytotoxicity in different cells (IC50, μM) Vero
[18] = Table 2, read-out: Cytotoxicity in different cells (IC50, μM) CEM
[19] = Table 2, read-out: Anti-HIV-1 activity in different cells (EC90, μM) PBM
[20] = Table 2, read-out: Cytotoxicity in different cells (IC50, μM) HepG2

SMILES	IC50 (MT-2 cells; [9])	IC50 (human PBM cells; [10])	IC50 (Vero cells; [11])	IC50 [6, 12]	EC90 (HIV-1LAl; [13])	IC50 (HepG2 cells; [14])	EC90 (HIV-1RF; Table 1)	IC50 (MT-2 cells; [15])	IC50 (human PBM cells; [16])	IC50 (Vero cells; [17])	IC50 [6, 18]	EC90 (HIV-1LAl; [19])	IC50 (HepG2 cells; [20])	EC90 (HIV-1RF; Table 2)	further results
O=C(Nc1nc(=O)n([C@H]2CC[C@@H](CO)O2)cc1F)c1ccc(I)cc1 [Compound 10, β-D-2′,3′-Dideoxy-5-fluoro-N^4-(4-iodobenzoyl)cytidine]	–	–	–	–	–	–	–	–	–	–	–	–	–	–	IC50 [1]: > 50 µM; IC50 [2]: > 100 µM; IC50 [3]: > 100 µM; IC50 [4]: > 100 µM; EC90 (HIV-1LAl; [7]): 0.019 µM; EC90 (HIV-1NL4-3): 0.17 µM; IC50 [5]: > 100 µM; EC90 (HIV-1RF; [8]): 0.025 µM
O=C(Nc1nc(=O)n([C@H]2CC[C@@H](CO)O2)cc1F)c1ccc(F)cc1 [Compound 11, β-D-2′,3′-Dideoxy-5-fluoro-N^4-(4-fluorobenzoyl)cytidine]	–	–	–	–	–	–	–	–	–	–	–	–	–	–	IC50 [1]: > 50 µM; IC50 [2]: > 100 µM; IC50 [3]: > 100 µM; IC50 [4]: 45.7 µM; EC90 (HIV-1LAl; [7]): 0.027 µM; EC90 (HIV-1NL4-3): 0.61 µM; IC50 [5]: > 100 µM; EC90 (HIV-1RF; [8]): 0.32 µM
O=C(Nc1nc(=O)n([C@H]2CC[C@@H](CO)O2)cc1F)c1ccccc1[N+](=O)[O-] [Compound 20, β-D-2′,3′-Dideoxy-5-fluoro-N^4-(2-nitrobenzoyl)cytidine]	> 50 µM	> 100 µM	> 100 µM	> 100 µM	1.5 µM	> 100 µM	0.7 µM	–	–	–	–	–	–	–	–
O=C(Nc1nc(=O)n([C@H]2CC[C@@H](CO)O2)cc1F)c1ccccc1 [Compound 21, β-D-N^4-Benzoyl-2′,3′-dideoxy-5-fluorocytidine]	19 µM	67 µM	5.8 µM	38.5 µM	1.29 µM	15.3 µM	1.2 µM	–	–	–	–	–	–	–	–
Cc1ccccc1C(=O)Nc1nc(=O)n([C@H]2CC[C@@H](CO)O2)cc1F [Compound 24, β-D-2′,3′-Dideoxy-5-fluoro-N^4-o-toluoylcytidine]	> 50 µM	20.6 µM	39.6 µM	22.5 µM	1.2 µM	> 100 µM	6.8 µM	–	–	–	–	–	–	–	–
O=C(Nc1nc(=O)n([C@H]2CC[C@@H](CO)O2)cc1F)c1ccco1 [Compound 29, β-D-2′,3′-Dideoxy-5-fluoro-N^4-(2-furoyl)cytidine]	> 50 µM	16.9 µM	29.6 µM	5.7 µM	1.5 µM	31.1 µM	0.9 µM	–	–	–	–	–	–	–	–
O=C(Nc1nc(=O)n([C@H]2CC[C@@H](CO)O2)cc1F)c1cccnc1 [Compound 31, β-D-2′,3′-Dideoxy-5-fluoro-N^4-(nicotinoyl)cytidine]	> 50 µM	8.8 µM	28.1 µM	5.5 µM	0.17 µM	19.4 µM	5.9 µM	–	–	–	–	–	–	–	–
CCCC(=O)Nc1nc(=O)n([C@H]2CC[C@@H](CO)O2)cc1F [Compound 34, β-D-N^4-Butyryl-2′,3′-dideoxy-5-fluorocytidine]	7.2 µM	17.1 µM	5.8 µM	31.6 µM	1.6 µM	7.6 µM	0.71 µM	–	–	–	–	–	–	–	–
COc1cccc(C(=O)Nc2nc(=O)n([C@H]3C=C[C@@H](CO)O3)cc2F)c1 [Compound 43, β-D-N^4-m-Anisoyl-2′,3′-didehydro-2′,3′-dideoxy-5-fluorocytidine]	–	–	–	–	–	–	–	> 50 µM	18.5 µM	> 100 µM	24.6 µM	2.1 µM	> 100 µM	0.34 µM	–
COc1ccccc1C(=O)Nc1nc(=O)n([C@H]2C=C[C@@H](CO)O2)cc1F [Compound 44, β-D-N^4-o-Anisoyl-2,3′-didehydro-2,3-dideoxy-5-fluorocytidine]	–	–	–	–	–	–	–	> 50 µM	13.1 µM	5.6 µM	3.9 µM	14.6 µM	3.4 µM	> 50 µM	–
O=C(Nc1nc(=O)n([C@H]2C=C[C@@H](CO)O2)cc1F)c1ccc([N+](=O)[O-])cc1 [Compound 45, β-D-2′,3′-Didehydro-2′,3′-dideoxy-5-fluoro-N^4-(4-nitrobenzoyl)cytidine]	–	–	–	–	–	–	–	> 50 µM	3.4 µM	6.6 µM	4.2 µM	1.7 µM	5.6 µM	0.29 µM	–
O=C(Nc1nc(=O)n([C@H]2C=C[C@@H](CO)O2)cc1F)c1ccccc1[N+](=O)[O-] [Compound 47, β-D-2′,3′-Didehydro-2′,3′-dideoxy-5-fluoro-N^4-(2-nitrobenzoyl)cytidine]	–	–	–	–	–	–	–	> 50 µM	80 µM	> 100 µM	> 100 µM	39.9 µM	> 100 µM	> 50 µM	–
Cc1ccccc1C(=O)Nc1nc(=O)n([C@H]2C=C[C@@H](CO)O2)cc1F [Compound 50, β-D-2′,3′-Didehydro-2′,3′-dideoxy-5-fluoro-N^4-o-toluoylcytidine]	–	–	–	–	–	–	–	> 50 µM	58.4 µM	> 100 µM	46.4 µM	56.8 µM	> 100 µM	> 50 µM	–
O=C(Nc1nc(=O)n([C@H]2C=C[C@@H](CO)O2)cc1F)c1cccs1 [Compound 54, β-D-2′,3′-Didehydro-2′,3′-dideoxy-5-fluoro-N^4-(2-thiophenecarbonyl)cytidine]	–	–	–	–	–	–	–	> 50 µM	10.2 µM	4.8 µM	3.9 µM	1.6 µM	2.3 µM	1.5 µM	–
O=C(Nc1nc(=O)n([C@H]2C=C[C@@H](CO)O2)cc1F)c1cccnc1 [Compound 55, β-D-2, 3′-Didehydro-2′,3′-dideoxy-5-fluoro-N^4-nicotinoylcytidine]	–	–	–	–	–	–	–	> 50 µM	13.8 µM	13.1 µM	6.7 µM	42.3 µM	10.3 µM	29 µM	–
O=C(Nc1nc(=O)n([C@H]2C=C[C@@H](CO)O2)cc1F)c1cc2ccccc2s1 [Compound 56, β-D-2′,3′-Didehydro-2′,3′-dideoxy-5-fluoro-N-(benzo[b]thiophene-2-carbonyl)cytidine]	–	–	–	–	–	–	–	> 50 µM	2.2 µM	5.6 µM	2.8 µM	0.29 µM	1.3 µM	0.3 µM	–
